Compound: C1=CC2=NC=CN=C2C=C1/C=C/3\C(=O)NC(=O)S3 + Nc1ncn([C@H]2C[C@H](O)[C@@H](CO)O2)c(=O)n1 [Decitabine] (partner 2 µM)
Experiment: relative viability (nuclei count vs DMSO), 5 days (fraction); higher = more cells survive
Conditions: first compound 0.02 µM
Procedure, shortened: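 Lung cancer cell lines in 1536-well plates got either a single drug or a fixed anchor-drug dose together with five library-drug doses (not always all listed) in √10 steps, by pin tool, on the day after seeding. Nuclei were counted after 5 days, and relative viability is the treated-to-vehicle ratio of nuclei counts. Values are medians of duplicate plates.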

Row | Cell Line | relative viability
1 | NCI-H2405 | 0.686
2 | HOP-62 | 0.188
3 | HCC-44 | 0.872
4 | LU99A | 0.932
5 | BEN | 0.715
6 | HARA | 0.537
7 | HCC-78 | 0.703
8 | NCI-H322M | 0.693
9 | LCLC-97TM1 | 0.293
10 | NCI-H2009 | 0.353
11 | A-427 | 0.541
12 | NCI-H441 | 0.246
13 | NCI-H661 | 0.555
14 | NCI-H1734 | 0.483
15 | NCI-H460 | 0.524
16 | NCI-H2347 | 0.631

Row | Cell Line | relative viability
17 | SK-LU-1 | 0.597
18 | 201T | 0.901
19 | NCI-H1915 | 0.238
20 | HCC-827 | 0.259
21 | LXF-289 | 0.357
22 | NCI-H23 | 0.329
23 | NCI-H647 | 0.339
24 | NCI-H1651 | 0.56
25 | EPLC-272H | 0.351
26 | NCI-H1792 | 0.535
27 | NCI-H1355 | 0.348
28 | NCI-H3122 | 0.434
29 | NCI-H1437 | 0.548
30 | NCI-H1755 | 0.74
31 | NCI-H2023 | 0.205
32 | HCC-15 | 0.625

Same assay, conditions: first compound 0.06325 µM

Row | Cell Line | relative viability
33 | NCI-H2405 | 0.818
34 | HOP-62 | 0.278
35 | HCC-44 | 1.07
36 | LU99A | 0.828
37 | BEN | 0.774
38 | HARA | 0.587
39 | HCC-78 | 0.578
40 | NCI-H322M | 0.776
41 | LCLC-97TM1 | 0.244
42 | NCI-H2009 | 0.388
43 | A-427 | 0.583
44 | NCI-H441 | 0.284
45 | NCI-H661 | 0.571
46 | NCI-H460 | 0.389
47 | NCI-H2347 | 0.829
48 | SK-LU-1 | 0.712
49 | 201T | 0.864
50 | NCI-H1915 | 0.281
51 | HCC-827 | 0.343
52 | LXF-289 | 0.374
53 | NCI-H23 | 0.357
54 | NCI-H647 | 0.458
55 | NCI-H1651 | 0.424
56 | EPLC-272H | 0.344
57 | NCI-H1355 | 0.353
58 | NCI-H3122 | 0.431
59 | NCI-H1437 | 0.546
60 | NCI-H1755 | 0.628
61 | NCI-H2023 | 0.237
62 | HCC-15 | 0.686

Same assay, conditions: first compound 0.2 µM

Row | Cell Line | relative viability
63 | NCI-H2405 | 0.751
64 | HOP-62 | 0.215
65 | HCC-44 | 0.942
66 | LU99A | 0.884
67 | BEN | 0.886
68 | HARA | 0.498
69 | HCC-78 | 0.668
70 | NCI-H322M | 0.798
71 | LCLC-97TM1 | 0.229
72 | NCI-H2009 | 0.358
73 | A-427 | 0.55
74 | NCI-H441 | 0.251
75 | NCI-H661 | 0.574
76 | NCI-H1734 | 0.517
77 | NCI-H460 | 0.515
78 | NCI-H2347 | 0.631

Row | Cell Line | relative viability
79 | SK-LU-1 | 0.74
80 | 201T | 0.824
81 | NCI-H1915 | 0.28
82 | HCC-827 | 0.345
83 | LXF-289 | 0.334
84 | NCI-H23 | 0.322
85 | NCI-H647 | 0.382
86 | NCI-H1651 | 0.651
87 | EPLC-272H | 0.4
88 | NCI-H1792 | 0.6
89 | NCI-H1355 | 0.357
90 | NCI-H3122 | 0.468
91 | NCI-H1437 | 0.588
92 | NCI-H1755 | 0.729
93 | NCI-H2023 | 0.205
94 | HCC-15 | 0.717

Same assay, conditions: first compound 0.6325 µM

Row | Cell Line | relative viability
95 | NCI-H2405 | 0.793
96 | HOP-62 | 0.191
97 | HCC-44 | 0.961
98 | LU99A | 0.751
99 | BEN | 0.691
100 | HARA | 0.614
101 | HCC-78 | 0.594
102 | NCI-H322M | 0.665
103 | LCLC-97TM1 | 0.247
104 | NCI-H2009 | 0.381
105 | A-427 | 0.538
106 | NCI-H441 | 0.23
107 | NCI-H661 | 0.527
108 | NCI-H1734 | 0.501
109 | NCI-H460 | 0.459
110 | NCI-H2347 | 0.586

Row | Cell Line | relative viability
111 | SK-LU-1 | 0.639
112 | 201T | 0.87
113 | NCI-H1915 | 0.252
114 | HCC-827 | 0.392
115 | LXF-289 | 0.379
116 | NCI-H23 | 0.286
117 | NCI-H647 | 0.432
118 | NCI-H1651 | 0.576
119 | EPLC-272H | 0.356
120 | NCI-H1792 | 0.513
121 | NCI-H1355 | 0.367
122 | NCI-H3122 | 0.459
123 | NCI-H1437 | 0.536
124 | NCI-H1755 | 0.689
125 | NCI-H2023 | 0.195
126 | HCC-15 | 0.561

Same assay, conditions: first compound 2 µM

Row | Cell Line | relative viability
127 | NCI-H2405 | 0.586
128 | HOP-62 | 0.254
129 | HCC-44 | 0.843
130 | LU99A | 0.725
131 | BEN | 0.635
132 | HARA | 0.63
133 | HCC-78 | 0.525
134 | NCI-H322M | 0.692
135 | LCLC-97TM1 | 0.221
136 | NCI-H2009 | 0.352
137 | A-427 | 0.491
138 | NCI-H441 | 0.287
139 | NCI-H661 | 0.575
140 | NCI-H1734 | 0.489
141 | NCI-H460 | 0.534
142 | NCI-H2347 | 0.546

Row | Cell Line | relative viability
143 | SK-LU-1 | 0.596
144 | 201T | 0.879
145 | NCI-H1915 | 0.281
146 | HCC-827 | 0.33
147 | LXF-289 | 0.389
148 | NCI-H23 | 0.3
149 | NCI-H647 | 0.488
150 | NCI-H1651 | 0.552
151 | EPLC-272H | 0.321
152 | NCI-H1792 | 0.374
153 | NCI-H1355 | 0.33
154 | NCI-H3122 | 0.403
155 | NCI-H1437 | 0.617
156 | NCI-H1755 | 0.685
157 | NCI-H2023 | 0.222
158 | HCC-15 | 0.553
